Here are results for 14 compounds from ChEMBL document CHEMBL4177767, “Discovery of N2-(4-Amino-cyclohexyl)-9-cyclopentyl- N6-(4-morpholin-4-ylmethyl-phenyl)- 9H-purine-2,6-diamine as a Potent FLT3 Kinase Inhibitor for Acute Myeloid Leukemia with FLT3 Mutations” (J Med Chem, 2018).

Where only a bound is given, the exact number is not on record here.

The term GI50 denotes the concentration at which growth is held to half of that of the control. As usually defined, the IC50 is the concentration that gives 50% inhibition.

Series [1] in a line: in vitro. Particulars: human, HUVEC.
The test system of a further series is MV4-11. Description: Growth inhibition of human MV4-11 cells after 72 hrs by calcein AM dye-based fluorescence assay. The class given is functional. To be noted: MV4-11, 72 h.
Series [2] has as its target Receptor-type tyrosine-protein kinase FLT3 (Homo sapiens, UniProt P36888, D835Y). Description: biochemical. The class given is cell-based, Sf9.
Description: Inhibition of N-terminal GST/His6-fused recombinant human FLT3 (R571 to S993 residues) D835Y mutant expressed in Sf9 insect cells using poly (Ala,Glu,Lys,Tyr) 6:2:5:1 hydrobromide as substrate in presence of [gamma-33P]ATP
Series [3] deals with Receptor-type tyrosine-protein kinase FLT3 (Homo sapiens, UniProt P36888, ITD). Description: biochemical. Format: cell-based, Sf9.
Description: Inhibition of N-terminal GST/His6-fused recombinant human FLT3 (R571 to S993 residues) ITD mutant expressed in Sf9 insect cells using poly (Ala,Glu,Lys,Tyr) 6:2:5:1 hydrobromide as substrate in presence of [gamma-33P]ATP
For the next series, the system named is U-937. Kind of series: cells. To be noted: Homo sapiens, U-937, 72 h.
A short description of series [4]: in vitro. To be noted: human, MRC5 cells.
The next series concerns HCC827. Kind of series: cells. To be noted: Homo sapiens, HCC827, 72 h.
A further series concerns Kasumi 1. Description: cells. To be noted: Homo sapiens, Kasumi 1, 72 h.
In another series the test system is MOLM-13. Description: cells. Particulars: Homo sapiens, MOLM-13, 72 h.
The next series deals with THP-1. Description: cells. Particulars: Homo sapiens, THP-1, 72 h.
A further series deals with K562. Description: cells. To be noted: Homo sapiens, K562, 72 h.
Series [5] can be described thus: in vitro. Particulars: human, BJ cells.
The next series relates to MCF7. Description: cells. Particulars: Homo sapiens, MCF7, 72 h.
Series [6] deals with T1, Receptor-type tyrosine-protein kinase FLT3 (Homo sapiens, UniProt P36888).
T1 sequence (P36888 whole entry): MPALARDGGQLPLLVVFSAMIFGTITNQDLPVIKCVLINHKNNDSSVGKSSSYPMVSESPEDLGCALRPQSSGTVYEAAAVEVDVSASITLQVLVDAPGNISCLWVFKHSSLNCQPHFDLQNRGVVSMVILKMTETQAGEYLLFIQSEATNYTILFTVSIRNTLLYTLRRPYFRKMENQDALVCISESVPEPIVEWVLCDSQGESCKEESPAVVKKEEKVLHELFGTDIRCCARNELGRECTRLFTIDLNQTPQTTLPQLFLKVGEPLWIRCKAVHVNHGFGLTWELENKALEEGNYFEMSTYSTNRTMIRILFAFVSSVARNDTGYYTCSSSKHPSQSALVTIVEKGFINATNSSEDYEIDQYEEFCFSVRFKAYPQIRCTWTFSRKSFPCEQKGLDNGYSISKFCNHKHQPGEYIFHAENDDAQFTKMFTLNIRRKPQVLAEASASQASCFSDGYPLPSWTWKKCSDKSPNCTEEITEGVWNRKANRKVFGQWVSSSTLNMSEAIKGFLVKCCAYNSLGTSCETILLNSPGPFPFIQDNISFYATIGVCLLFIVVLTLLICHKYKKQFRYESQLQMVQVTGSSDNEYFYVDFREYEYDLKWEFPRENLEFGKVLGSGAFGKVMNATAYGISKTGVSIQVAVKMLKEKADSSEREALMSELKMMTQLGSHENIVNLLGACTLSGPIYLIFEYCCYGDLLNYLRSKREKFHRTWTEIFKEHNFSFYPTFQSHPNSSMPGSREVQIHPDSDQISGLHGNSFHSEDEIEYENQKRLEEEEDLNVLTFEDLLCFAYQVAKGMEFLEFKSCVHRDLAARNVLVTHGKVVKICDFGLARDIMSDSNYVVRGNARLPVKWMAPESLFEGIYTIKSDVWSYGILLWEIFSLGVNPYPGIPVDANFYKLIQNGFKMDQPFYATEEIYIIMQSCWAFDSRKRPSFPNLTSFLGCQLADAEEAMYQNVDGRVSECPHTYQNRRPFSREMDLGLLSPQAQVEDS
Description: biochemical. Format: cell-based, Sf9.
Description: Inhibition of N-terminal GST/His6-fused recombinant wild type human FLT3 (R571 to S993 residues) expressed in Sf9 insect cells using poly (Ala,Glu,Lys,Tyr) 6:2:5:1 hydrobromide as substrate in presence of [gamma-33P]ATP

`c1ccc(CNc2nc(Nc3ccc(CN4CCOCC4)cc3)c3ncn(C4CCCC4)c3n2)cc1`: the figures for the concentration for 50% growth inhibition (GI50) at 72 h in “in vitro [1]”, in the series “in vitro [4]” and in the series “in vitro [5]” were 10100 nM, 23900 nM and more than 25000 nM, respectively. Also, the 50% growth inhibitory concentration (GI50) was 196 nM in the series with MV4-11; 9790 nM with U-937; more than 5000 nM with HCC827; 4760 nM with Kasumi 1; 122 nM in the series on MOLM-13; more than 10000 nM in the series on THP-1. For the same compound, the GI50 with K562 came to 3600 nM; with MCF7, 8600 nM. The results for the IC50 in [2], in [3] and in [6] were 624 nM, 26 nM and 83 nM, respectively.

As for `N[C@H]1CC[C@H](Nc2nc(Nc3ccc(N4CCCC4)cc3)c3ncn(C4CCCC4)c3n2)CC1`, the results for the GI50 at 72 h in the series “in vitro [1]”, in the series “in vitro [4]” and in the series “in vitro [5]” were 12100 nM, 14000 nM and 15900 nM, respectively. Also, the 50% growth inhibitory concentration (GI50) is 18 nM in the series with MV4-11; 3170 nM in the series with U-937; 1070 nM in the series with HCC827; 569 nM with Kasumi 1; 24 nM in the series with MOLM-13; 3110 nM in the series with THP-1. In addition, the GI50 came to 940 nM with K562 and 487 nM with MCF7. The results for the IC50 in series [2], in series [3] and in series [6] were 11 nM, 3 nM and 21 nM, respectively.

With `CCN1CCN(c2ccc(Nc3nc(N[C@H]4CC[C@H](N)CC4)nc4c3ncn4C3CCCC3)cc2)CC1`, the GI50 at 72 h was 4440 nM in the series “in vitro [1]”, 22000 nM in “in vitro [4]” and 12900 nM in the series “in vitro [5]”. Moreover, the GI50 in the series with MV4-11 is 1 nM; in the series on U-937, 605 nM; in the series with HCC827 it was 592 nM; in the series with Kasumi 1, 839 nM; with MOLM-13, 4 nM; with THP-1, 514 nM. Further, the GI50 in the series on K562 amounted to 2070 nM; in the series with MCF7, 1050 nM. Also, the values for the half-maximal inhibitory concentration (IC50) in [2], in series [3] and in series [6] were 2 nM, 3 nM and 10 nM, respectively.

For `CCN1CCN(c2ccc(Nc3nc(NCCCCN)nc4c3ncn4C3CCCC3)cc2)CC1`, the GI50 at 72 h in “in vitro [1]” was determined as 11400 nM; in the series “in vitro [4]”, 10300 nM; in the series “in vitro [5]”, 15400 nM. For the same compound, the GI50 with MV4-11 was 12 nM; in the series with U-937, 3420 nM; with HCC827, 976 nM; with Kasumi 1 it was 2070 nM; in the series on MOLM-13 it was 4 nM; in the series with THP-1, 4360 nM. Moreover, the GI50 in the series with K562 stood at 1340 nM; in the series on MCF7 it was 2150 nM. Also, the half-maximal inhibitory concentration (IC50) in series [2] turned out to be 3 nM; in [3], 1 nM.

In the case of `NCCCCCCNc1nc(Nc2ccc(CN3CCOCC3)cc2)c2ncn(C3CCCC3)c2n1`, the GI50 at 72 h worked out at 10300 nM in “in vitro [1]”, 4090 nM in the series “in vitro [4]” and 7260 nM in “in vitro [5]”. Also, the GI50 was 86 nM with MV4-11; 2920 nM in the series on U-937; 2250 nM in the series on HCC827; 1020 nM in the series on Kasumi 1; 54 nM with MOLM-13; 3590 nM in the series on THP-1. For the same compound, the GI50 in the series on K562 came to 3790 nM; with MCF7, 5000 nM. Besides, the half-maximal inhibitory concentration (IC50) in series [2] came out at 69 nM; in series [3], 10 nM.

In the case of `NCCCCNc1nc(Nc2ccc(N3CCOCC3)cc2)c2ncn(C3CCCC3)c2n1`, the GI50 at 72 h in the series “in vitro [1]” stood at 8060 nM; in “in vitro [4]”, 7560 nM; in “in vitro [5]” it was 13000 nM. Besides, the concentration for 50% growth inhibition (GI50) with MV4-11 was 11 nM; in the series on U-937 it was 4070 nM; in the series with HCC827 it was 1410 nM; with Kasumi 1 it was 2020 nM; with MOLM-13, 17 nM; with THP-1, 6910 nM. Also, the concentration for 50% growth inhibition (GI50) came out at 3490 nM in the series on K562 and 3260 nM with MCF7. The IC50 in series [2] is 7 nM; in [3] it was 4 nM.

On to `N[C@H]1CC[C@H](Nc2nc(Nc3ccc(Br)cc3)c3ncn(C4CCCC4)c3n2)CC1`, for which the GI50 at 72 h amounted to 10100 nM in “in vitro [1]”, 20600 nM in the series “in vitro [4]” and 14700 nM in “in vitro [5]”. Besides, the GI50 was 10 nM with MV4-11; 1800 nM in the series on U-937; 1280 nM in the series on HCC827; 481 nM in the series with Kasumi 1; 15 nM in the series with MOLM-13; 2280 nM in the series with THP-1. Further, the figures for the GI50 in the series on K562 and with MCF7 were 670 nM and 520 nM, respectively. Further, the half-inhibitory concentration (IC50) in series [2] was determined as 4 nM; in [3], 4 nM; in series [6] it was 16 nM.

Turning to `C[C@@H](CO)CNc1nc(Nc2ccc(Br)cc2)c2ncn(C3CCCC3)c2n1`, the values for the GI50 in the series with MV4-11 and in the series on K562 were 1310 nM and 7630 nM, respectively. The same compound returned an IC50 in [3] of 281 nM.

As for `NCCCCNc1nc(Nc2ccc(CN3CCOCC3)cc2)c2ncn(C3CCCC3)c2n1`, the concentration for 50% growth inhibition (GI50) at 72 h in “in vitro [1]” was 6260 nM; in the series “in vitro [4]”, 3880 nM; in the series “in vitro [5]”, 10400 nM. The GI50 in the series with MV4-11 was 11 nM; with U-937, 1340 nM; with HCC827, 1660 nM; in the series on Kasumi 1 it was 2240 nM; in the series with MOLM-13, 19 nM; in the series with THP-1, 3740 nM. Besides, the concentration for 50% growth inhibition (GI50) with K562 and in the series on MCF7 was 2100 nM throughout. Besides, the half-maximal inhibitory concentration (IC50) worked out at 5 nM in [2] and 1 nM in series [3].

With `N[C@H]1CC[C@H](Nc2nc(Nc3ccc(N4CCOCC4)cc3)c3ncn(C4CCCC4)c3n2)CC1`, the 50% growth inhibitory concentration (GI50) at 72 h in “in vitro [1]” is 4530 nM; in the series “in vitro [4]” it was 23300 nM; in the series “in vitro [5]”, 12200 nM. The 50% growth inhibitory concentration (GI50) was 2 nM in the series on MV4-11; 1570 nM with U-937; 521 nM in the series with HCC827; 816 nM with Kasumi 1; 4 nM in the series on MOLM-13; 1160 nM in the series on THP-1. The concentration for 50% growth inhibition (GI50) with K562 is 965 nM; in the series on MCF7, 320 nM. Also, the half-inhibitory concentration (IC50) was 7 nM in [2], 2 nM in series [3] and 21 nM in series [6].

With `N[C@H]1CC[C@H](Nc2nc(Nc3ccc(N4CC5(COC5)C4)cc3)c3ncn(C4CCCC4)c3n2)CC1`, the 50% growth inhibitory concentration (GI50) at 72 h in the series “in vitro [1]” stood at 5950 nM; in the series “in vitro [4]”, 9800 nM; in “in vitro [5]”, 14600 nM. Also, the 50% growth inhibitory concentration (GI50) was 3 nM in the series with MV4-11; 638 nM with U-937; 456 nM in the series with HCC827; 734 nM in the series with Kasumi 1; 4 nM with MOLM-13; 693 nM in the series with THP-1. In addition, the GI50 in the series with K562 turned out to be 1220 nM; in the series on MCF7 it was 1060 nM. Further, the IC50 in [2] amounted to 28 nM; in series [3], 4 nM; in [6] it was 13 nM.

With `CN1CCN(c2nc(Nc3ccc(CN4CCOCC4)cc3)c3ncn(C4CCCC4)c3n2)CC1`, the 50% growth inhibitory concentration (GI50) in the series with MV4-11 was 66 nM; in the series with K562 it was 2740 nM. The compound further returned a concentration for half-maximal inhibition (IC50) in series [3] of 53 nM.

Take `CN1CCN(c2nc(Nc3ccc(Br)cc3)c3ncn(C4CCCCO4)c3n2)CC1` (stereo not drawn): the GI50 in the series on MV4-11 is 3200 nM; in the series on K562, 7130 nM. Besides, in [3], 4210 nM corresponded to half-maximal inhibition (IC50).

Turning to `NCCCCCNc1nc(Nc2ccc(CN3CCOCC3)cc2)c2ncn(C3CCCC3)c2n1`, the values for the GI50 at 72 h in “in vitro [1]”, in “in vitro [4]” and in the series “in vitro [5]” were 14200 nM, 5880 nM and 11200 nM, respectively. Also, the concentration for 50% growth inhibition (GI50) with MV4-11 was 35 nM; in the series with U-937 it was 3630 nM; in the series on HCC827 it was 1120 nM; in the series with Kasumi 1 it was 1280 nM; in the series on MOLM-13, 20 nM; in the series on THP-1, 2420 nM. Moreover, the GI50 turned out to be 1530 nM in the series on K562 and 2120 nM in the series with MCF7. In addition, the half-maximal inhibitory concentration (IC50) amounted to 65 nM in series [2] and 5 nM in series [3].
